Experimental data published in ChEMBL document CHEMBL3860084, “Allyl and prenyl ethers of mansonone G, new potential semisynthetic antibacterial agents” (2016).
Values after ≈ are worked out from the molar mass of the structure shown.

Assays:
Salmonella typhi [1] = assay: Antibacterial activity against Salmonella typhi ATCC 422 at 1000 uM after 24 hrs by agar well-diffusion method; type: functional, Salmonella enterica subsp. enterica serovar Typhi; conditions: Salmonella enterica, ATCC 422, 24 h; read-out: DIZ
Staphylococcus aureus [2] = assay: Antibacterial activity against Staphylococcus aureus ATCC 25923 at 1000 uM after 24 hrs by agar well-diffusion method; type: functional; conditions: ATCC 25923, 24 h, read-out: DIZ
Streptococcus mutans [3] = assay: Antibacterial activity against Streptococcus mutans ATCC 25175 at 1000 uM after 24 hrs by agar well-diffusion method; type: functional; conditions: ATCC 25175, 24 h, read-out: DIZ
Salmonella typhi [4] = assay: Antibacterial activity against Salmonella typhi ATCC 422 by resazurin based broth microdilution method; type: functional, Salmonella enterica subsp. enterica serovar Typhi; conditions: Salmonella enterica
Cutibacterium acnes [5] = assay: Antibacterial activity against Propionibacterium acnes KCCM 41747 at 1000 uM after 24 hrs by agar well-diffusion method; type: functional; conditions: KCCM 41747, 24 h, read-out: DIZ
Streptococcus sobrinus [6] = assay: Antibacterial activity against Streptococcus sobrinus KCCM 11898 at 1000 uM after 24 hrs by agar well-diffusion method; type: functional; conditions: KCCM 11898, 24 h, read-out: DIZ
Streptococcus sobrinus [7] = assay: Antibacterial activity against Streptococcus sobrinus KCCM 11898 by resazurin based broth microdilution method; type: functional
Staphylococcus aureus [8] = assay: Antibacterial activity against Staphylococcus aureus ATCC 25923 by resazurin based broth microdilution method; type: functional
Streptococcus mutans [9] = assay: Antibacterial activity against Streptococcus mutans ATCC 25175 by resazurin based broth microdilution method; type: functional
Cutibacterium acnes [10] = assay: Antibacterial activity against Propionibacterium acnes KCCM 41747 by resazurin based broth microdilution method; type: functional
Salmonella typhi [11] = assay: Antibacterial activity against Salmonella typhi ATCC 422 at 500 uM after 24 hrs by agar well-diffusion method; type: functional, Salmonella enterica subsp. enterica serovar Typhi; conditions: Salmonella enterica, ATCC 422, 24 h; read-out: DIZ
Streptococcus sobrinus [12] = assay: Antibacterial activity against Streptococcus sobrinus KCCM 11898 at 500 uM after 24 hrs by agar well-diffusion method; type: functional; conditions: KCCM 11898, 24 h, read-out: DIZ
Cutibacterium acnes [13] = assay: Antibacterial activity against Propionibacterium acnes KCCM 41747 at 500 uM after 24 hrs by agar well-diffusion method; type: functional; conditions: KCCM 41747, 24 h, read-out: DIZ
Streptococcus mutans [14] = assay: Antibacterial activity against Streptococcus mutans ATCC 25175 at 500 uM after 24 hrs by agar well-diffusion method; type: functional; conditions: ATCC 25175, 24 h, read-out: DIZ
Staphylococcus aureus [15] = assay: Antibacterial activity against Staphylococcus aureus ATCC 25923 at 500 uM after 24 hrs by agar well-diffusion method; type: functional; conditions: ATCC 25923, 24 h, read-out: DIZ

Structure (SMILES) | zone of inhibition at 1000 µM (Salmonella typhi [1]) [mm] | zone of inhibition at 1000 µM (Staphylococcus aureus [2]) [mm] | zone of inhibition at 1000 µM (Streptococcus mutans [3]) [mm] | MIC (Salmonella typhi [4]) [µM] | zone of inhibition at 1000 µM (Cutibacterium acnes [5]) [mm] | zone of inhibition at 1000 µM (Streptococcus sobrinus [6]) [mm] | MIC (Streptococcus sobrinus [7]) [µM] | MIC (Staphylococcus aureus [8]) [µM] | MIC (Streptococcus mutans [9]) [µM] | MIC (Cutibacterium acnes [10]) [µM] | zone of inhibition at 500 µM (Salmonella typhi [11]) [mm] | zone of inhibition at 500 µM (Streptococcus sobrinus [12]) [mm] | zone of inhibition at 500 µM (Cutibacterium acnes [13]) [mm] | zone of inhibition at 500 µM (Streptococcus mutans [14]) [mm] | zone of inhibition at 500 µM (Staphylococcus aureus [15]) [mm]
CC(C)=CCC/C(C)=C/COc1cc(C)c2c(c1C(C)C)C=C(C)C(=O)C2=O | 14 | 14 | 16.2 | 125 (≈ 47.6 µg/mL) | 11.1 | 11.5 | – | – | – | – | – | – | – | – | –
CC1=C2OCC(C)c3c(O)cc(C)c(c32)C(=O)C1=O (stereo not given) | 11 | 12 | 10.3 | 31.2 (≈ 8.07 µg/mL) | 11.9 | 8.3 | 62.5 (≈ 16.1 µg/mL) | 250 (≈ 64.6 µg/mL) | 62.5 (≈ 16.1 µg/mL) | 125 (≈ 32.3 µg/mL) | – | – | – | – | –
CCCC(=O)Oc1cc(C)c2c(c1C(C)C)C=C(C)C(=O)C2=O | 10.7 | 18 | 12.7 | – | 13 | 13.7 | – | 62.5 (≈ 19.6 µg/mL) | – | – | – | – | – | – | –
CCCCCC(=O)Oc1cc(C)c2c(c1C(C)C)C=C(C)C(=O)C2=O | 9.7 | 14.7 | 12 | – | 11.6 | 12.7 | – | – | – | – | – | – | – | – | –
CCCCOc1cc(C)c2c(c1C(C)C)C=C(C)C(=O)C2=O | 12 | 18 | 18.3 | 3.9 (≈ 1.17 µg/mL) | 13.6 | 15.5 | 125 (≈ 37.5 µg/mL) | 15.6 (≈ 4.69 µg/mL) | 7.8 (≈ 2.34 µg/mL) | 15.6 (≈ 4.69 µg/mL) | – | – | – | – | –
CC1=C2OCC(C)c3ccc(C)c(c32)C(=O)C1=O (stereo not given) [MANSONONE E] | 11.6 | 19.7 | 20.3 | 15.6 (≈ 3.78 µg/mL) | 13.5 | 16.7 | 15.6 (≈ 3.78 µg/mL) | 31.2 (≈ 7.57 µg/mL) | 3.9 (≈ 0.945 µg/mL) | 31.2 (≈ 7.57 µg/mL) | – | – | – | – | –
CCCCCCCCOc1cc(C)c2c(c1C(C)C)C=C(C)C(=O)C2=O | 16.3 | 20 | 20 | 31.2 (≈ 11.1 µg/mL) | 14.6 | 15.7 | 31.2 (≈ 11.1 µg/mL) | 15.6 (≈ 5.56 µg/mL) | 31.2 (≈ 11.1 µg/mL) | 31.2 (≈ 11.1 µg/mL) | – | – | – | – | –
O=C(N[C@H](CO)[C@H](O)c1ccc([N+](=O)[O-])cc1)C(Cl)Cl [CHLORAMPHENICOL] | – | – | – | – | – | – | – | – | – | – | 24.8 | 25.3 | 30 | 25.7 | 20.7
COc1cc(C)c2c(c1C(C)C)C=C(C)C(=O)C2=O | 10.7 | 15.3 | 11.3 | – | 13.2 | 10.7 | – | – | – | – | – | – | – | – | –
CCCCCCCCCCCCOc1cc(C)c2c(c1C(C)C)C=C(C)C(=O)C2=O | 11.5 | 9 | 9 | – | 11.9 | 8 | – | – | – | – | – | – | – | – | –
CCOc1cc(C)c2c(c1C(C)C)C=C(C)C(=O)C2=O | 10.8 | 16 | 18 | – | 13.3 | 14 | 31.2 (≈ 8.51 µg/mL) | – | 62.5 (≈ 17 µg/mL) | 62.5 (≈ 17 µg/mL) | – | – | – | – | –
C=CCOc1cc(C)c2c(c1C(C)C)C=C(C)C(=O)C2=O | 14.5 | 23 | 17.3 | 62.5 (≈ 17.8 µg/mL) | 14.8 | 16 | 15.6 (≈ 4.44 µg/mL) | 0.975 (≈ 0.277 µg/mL) | 31.2 (≈ 8.89 µg/mL) | 31.2 (≈ 8.89 µg/mL) | – | – | – | – | –
CCCCCCCCCC(=O)Oc1cc(C)c2c(c1C(C)C)C=C(C)C(=O)C2=O | 8.2 | 7 | 9.7 | – | 11.4 | 10.7 | – | – | – | – | – | – | – | – | –
CCCCCCCC(=O)Oc1cc(C)c2c(c1C(C)C)C=C(C)C(=O)C2=O | 9.6 | 8.7 | 10.3 | – | 11.5 | 11.3 | – | – | – | – | – | – | – | – | –
CC1=Cc2c(c(C)cc(O)c2C(C)C)C(=O)C1=O [MANSONONE G] | 11.9 | 13.7 | 14.7 | 15.6 (≈ 3.81 µg/mL) | 15.6 | 10 | 31.2 (≈ 7.63 µg/mL) | 62.5 (≈ 15.3 µg/mL) | 31.2 (≈ 7.63 µg/mL) | 31.2 (≈ 7.63 µg/mL) | – | – | – | – | –
CC1=Cc2c(C(C)C)ccc(C)c2C(=O)C1=O | 11.3 | 12.7 | 13.7 | 31.2 (≈ 7.13 µg/mL) | 13.3 | 9.3 | 31.2 (≈ 7.13 µg/mL) | 62.5 (≈ 14.3 µg/mL) | 15.6 (≈ 3.56 µg/mL) | 62.5 (≈ 14.3 µg/mL) | – | – | – | – | –
CC(C)=CCOc1cc(C)c2c(c1C(C)C)C=C(C)C(=O)C2=O | 16.3 | 23.7 | 17.7 | 62.5 (≈ 19.5 µg/mL) | 15 | 16.7 | 31.2 (≈ 9.76 µg/mL) | 0.975 (≈ 0.305 µg/mL) | 31.2 (≈ 9.76 µg/mL) | 31.2 (≈ 9.76 µg/mL) | – | – | – | – | –
